Results reported in US10479814B2, “Adenosine receptor activation reagent and the uses of thereof” (Zhejiang Subtropical Crops Research Institute, priority 2014, dated 2019).

What was measured:
[1] = system: pentylenetetrazole induced convulsion; test: pentylenetetrazole induced convulsion in mouse; format: in vivo; conditions: antagonist ip 10 min before HEA 40 mg/kg, DPCPX 2 mg/kg, ZM241385 1 and 5 mg/kg
Method: Male ICR mouse, 18˜22 g; purchased from Animal Experiment Center of Wenzhou Medical University. Before experiment, animals were adapted to environment for at least 5 days. Kept at 25 °C, food and water were freely fed. Based on the weight, the healthy male ICR mice were randomly divided into control group (1% DMSO, ip), model group, CCPA group (0.1 mg·kg^−1, ip), HEA group (15 mg/kg, 40 mg/kg, 60 mg/kg), DPCPX group (2 mg·kg^−1, ip), ZM241385 group (1 mg·kg^−1, 5 mg·kg^−1, ip), DPCPX+HEA (2 mg·kg^−1+40 mg/kg, ip) group and ZM241385+HEA (1 mg·kg^−1+40 mg/kg, 5 mg·kg^−1+40 mg/kg ip) group.
The survival time and mortality after convulsion were respectively recorded for each group.

A1 receptor = conditions: cited from earlier work; for A1 selectivity: according to document record (Jacobson 1992); for selectivity to the A1 receptor (in words): existing A1 agonists

SMILES | effect of antagonist on the anti-convulsion action of the HEA [1] | effect of antagonist on the anti-convulsion action of the HEA ([1]; listed as Zm241385) | A1 selectivity (A1 receptor) | selectivity to the A1 receptor (in words) (A1 receptor)
Nc1nc(NCCc2ccc(O)cc2)nc2nc(-c3ccco3)nn12 [ZM241385] | no significant effect on the anti-convulsion effect of the HEA | no significant effect on the anti-convulsion action of the HEA |  | 
OC[C@H]1O[C@@H](n2cnc3c(N[C@H]4CC5CCC4C5)ncnc32)[C@H](O)[C@@H]1O (stereo partly shown) [S-ENBA] |  |  | up to 4700 fold | 
OC[C@H]1O[C@@H](n2cnc3c(NC4CCCC4)nc(Cl)nc32)[C@H](O)[C@@H]1O [CCPA] |  |  | 1500 fold | strong selectivity to the A1 receptor
OC[C@H]1O[C@@H](n2cnc3c(NC4CCCC4)ncnc32)[C@H](O)[C@@H]1O [CPA] |  |  |  | strong selectivity to the A1 receptor
OC[C@H]1O[C@@H](n2cnc3c(NC4CCCCC4)ncnc32)[C@H](O)[C@@H]1O [CHA] |  |  |  | strong selectivity to the A1 receptor
